Measurements reported in patent publication US20240238284A1, “COMPOUNDS AND COMPOSITIONS FOR THE TREATMENT OF MPNST” (Novartis AG, priority 2021, published 2024).

Tests used:
[1] = system: Rb-positive cell lines derived from diverse cancer types; experiment: Rb phosphorylation and cell cycle progression in Rb-positive cell lines; assay type: cell-based; details: more than 40 Rb-positive cell lines
NF1-MPNST PDX models = experiment: tumor growth in NF1-MPNST patient-derived xenograft (PDX) models in NRG mice; assay type: in vivo; details: oral gavage, TNO155 7.5 mg/kg, ribociclib 75 mg/kg once daily, up to 42 days
Procedure: The PDX models of Example 1 were developed and characterized according to Dehrner, et al., JCI Insight 2021: 6(6):e146351 and Pollard, K., et al., Sci Data, 2020; 7:184). NRG (NOD-Rag1^null IL 2rg^null, NOD rag gamma) mice are used for all experiments.
Tumor response, survival and toxicity data were collected and analyzed. To form tumors, 1-2 million NF1-MPNST PDX-derived cells (JH-2-031, JH-2-079, JH-2-002, WU-225, WU-386, or WU-545)) in 50% Matrigel (BD Biosciences) were injected subcutaneously in 4- to 6-week-old female NRG mice. The tumors were measured and mice weighed twice weekly once tumors began to form. Drugs were given beginning when tumors reached 150-200 mm^3. Mice were treated with vehicle, single agent (A or B or C) or combination (A+B or B+C) for up to 42 days. Each group consisted of three to five mice. Tumor volume was calculated using the formula: V=L×W2 (π/6), where L=longest diameter and W=width.

[2] = system: ten native NF1-MPNST cell lines; experiment: cell number by trypan blue exclusion, native NF1-MPNST cell lines; assay type: cell-based; details: TNO155 0.3, 1, 3 μM; ribociclib 1, 3 μM; about 1 week
From the text: (§1) Cell numbers were counted using trypan blue exclusion assay (Sigma-Aldrich) and normalized to the DMSO control.

[3] = system: trametinib resistant lines (ST8814Res and NF90.8Res); experiment: cell number by trypan blue exclusion, trametinib resistant lines; assay type: cell-based; details: TNO155 0.3, 1, 3 μM, ribociclib 1, 3 μM, about 1 week
From the text: as §1

p-ERK in WU-386 tumors = experiment: pharmacodynamic p-ERK levels in WU-386 PDX tumors; assay type: in vivo, mice; details: WU-386 tumors collected 4-hour post end-point treatment (4 weeks)

SMILES	Retinoblastoma protein (Rb) phosphorylation and G1 to S phase cell cycle progression [1]	anti-tumor activity / tumor growth inhibition in PDX models (NF1-MPNST PDX models)	cell number response normalized to DMSO control [2]	cell number response normalized to DMSO control [3]	p-ERK levels in tumors (p-ERK in WU-386 tumors)
CN(C)C(=O)c1cc2cnc(Nc3ccc(N4CCNCC4)cn3)nc2n1C1CCCC1 [Ribociclib, 7-cyclopentyl-N,N-dimethyl-2-((5-(piperazin-1-yl)pyridin-2-yl)amino)-7H-pyrrolo[2,3-d]pyrimidine-6-carboxamide]	inhibited Retinoblastoma protein (Rb) phosphorylation and interfered with G1 to S phase cell cycle progression	–	–	–	–
C[C@@H]1OCC2(CCN(c3cnc(Sc4ccnc(N)c4Cl)c(N)n3)CC2)[C@@H]1N [TNO155, (3S,4S)-8-(6-amino-5-((2-amino-3-chloropyridin-4-yl)thio)pyrazin-2-yl)-3-methyl-2-oxa-8-azaspiro[4.5]decan-4-amine]	–	substantial anti-tumor activity as a single agent	partial sensitivity	limited activity	decrease in p-ERK levels
